Source: patent US10894777B2, “TG2 inhibitor piperazine compounds and uses thereof” (UNIVERSITY OF OTTAWA, priority 2016, dated 2021)

How the values were obtained:
A431 cells = assay: Migration (scratch wound closure) assay, A431 cells; type: cell-based, human; conditions: 20 μM
Experimental: In (A), it is shown that A431-derived ECS cells have elevated TG2 and mesenchymal markers. A431 cells (40,000 cells/well) were grown in spheroid media in monolayer conditions or as non-attached spheroids (ECS cells) for 10 d. Cells were harvested and lysates prepared for immunoblot. In (B), A431 cells were electroporated with 3 μg of control- or TG2-siRNA and at 72 h extracts were prepared to assay TG2 and EMT marker level. In (C), A431-derived ECS cells were electroporated with 3 μg of the indicated siRNA and then grown as spheroids for 96 h. […] In (D), A431 cells (500,000 cells/well) were plated in monolayer culture in spheroid media in 100 mm dishes. […] Confluent monolayers were then scratched with a 10-μL pipette tip, rinsed, and width of the wound was monitored for 0-14 h.
In (A), A431 cells were grown as monolayers or in ultralow attachment plates (spheroids) in spheroid medium. […] Spheroid number was counted on days 1, 2 and 3. […] Spheroid number and trypan-blue viable cell number were determined at the indicated times following NC9 addition. […] A wound was created and ability of the cells to close the wound was monitored with time. […]
Migration assay. […] Images were collected, at 0-18 h after the scratch using the 10× objective, and the width of the opening was measured as a function of time as an index of cell migration potential.

TG3a = biological target: T1, TG3a (Homo sapiens, UniProt Q08188); assay: Fluorescence isopeptidase activity assay (A101 probe), TG3a; type: biochemical
T1 construct: purchased Zedira
T1 sequence (Q08188 2-467 limits assumed): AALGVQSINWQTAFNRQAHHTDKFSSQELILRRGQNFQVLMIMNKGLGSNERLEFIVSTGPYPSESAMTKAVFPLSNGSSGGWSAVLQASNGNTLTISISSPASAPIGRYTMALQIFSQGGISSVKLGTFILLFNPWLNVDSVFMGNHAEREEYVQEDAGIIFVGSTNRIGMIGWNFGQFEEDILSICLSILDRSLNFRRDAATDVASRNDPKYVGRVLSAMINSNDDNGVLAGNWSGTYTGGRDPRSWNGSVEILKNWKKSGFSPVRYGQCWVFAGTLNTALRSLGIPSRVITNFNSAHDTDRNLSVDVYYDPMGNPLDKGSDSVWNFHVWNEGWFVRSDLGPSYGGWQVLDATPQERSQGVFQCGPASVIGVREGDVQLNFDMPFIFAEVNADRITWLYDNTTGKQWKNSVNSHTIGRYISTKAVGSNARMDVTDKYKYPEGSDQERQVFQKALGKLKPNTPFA
T1 sequence (Q08188 468-693 partner limits assumed): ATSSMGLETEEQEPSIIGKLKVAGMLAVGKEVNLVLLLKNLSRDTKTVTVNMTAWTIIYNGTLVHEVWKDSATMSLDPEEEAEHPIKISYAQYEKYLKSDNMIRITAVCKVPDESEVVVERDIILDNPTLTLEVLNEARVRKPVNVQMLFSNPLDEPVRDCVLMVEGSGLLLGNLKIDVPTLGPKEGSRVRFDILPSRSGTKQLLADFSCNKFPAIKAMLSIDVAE
Experimental: Selectivity of certain irreversible inhibitors over other members of the transglutaminase family was assessed. […] Inhibitors were tested using a continuous colorimetric assay (Leblanc, A. et al., Biochemistry (2001), 40 (28): 8335-8342) for hTG1 and hTG6 and a commercially available continuous fluorescent assay that utilizes a peptidic FRET quenched substrate (Oertel, K. et al., Anal. Biochem. (2007), 367 (2): 152-158; Király, R. et al., Amino Acids (2016), 48 (1): 31-40) for the other transglutaminases, FXIIIa and hTG3. The rate constant of enzyme inactivation (kobs) for a specific concentration of inhibitor was obtained using Kitz and Wilson conditions (Kitz, R. et al., J. Biol. Chem. (1962), 237: 3245-49). Inhibitor concentrations were adjusted to account for competition with substrates in each enzymatic reaction.
Fluorescence isopeptidase activity assay. The isopeptidase activity of pre-activated TG3a and FXIIIa (purchased from Zedira) was measured via a fluorescence-based assay (Király, R. et al., Amino Acids (2016), 48 (1): 31-40) using the commercially available peptidic FRET quenched probe A101 from Zedira. Briefly, the final concentration in the reaction mixture contained 50 mM Tris (pH 7.0), 10 mM CaCl2, 100 mM NaCl, 2.8 mM TCEP, 50 μM A101 and 14 mM H-Gly-OMe. The reaction was monitored at 25° C. using a BioTek Synergy 4 plate reader (Ex/Em: 318/413 nm).

SMILES: C=CC(=O)NCCCC[C@H](NC(=O)OCc1ccccc1)C(=O)NCCOCCOCCNS(=O)(=O)c1cccc2c(N(C)C)cccc12 [NC9]
- cell migration / scratch wound closure (A431 cells): reduced cell migration
- kobs (10^−3 min^−1), TG3a (TG3a; Table 9, Kitz and Wilson conditions): 1.01 ± 0.09 10^−3 min^−1
- selectivity towards hTG2 over hTG3a (TG3a; from kobs): about 390 fold
